Results from ChEMBL document CHEMBL1125091, “Antiulcer agents. 4-substituted 2-guanidinothiazoles: reversible, competitive, and selective inhibitors of gastric H+,K(+)-ATPase” (J Med Chem, 1990).

These compounds were tested on Potassium-transporting ATPase (Canis familiaris) (assay: Percent inhibition of gastric proton-pump enzyme H+/K+ ATPase was determined at 50 uM). Conditions: Canis lupus familiaris, Stomach.

SMILES	inhibition [%]
CCCCCCN(C)C(=N)Nc1nc(-c2c[nH]c(C)c2)cs1	54
CCCCCC/N=C(\NC)Nc1nc(-c2c[nH]c(C)c2)cs1	68
Cc1cccc2[nH]cc(-c3csc(NC(=N)NCc4ccccc4)n3)c12	103
Cc1cccc(-c2csc(NC(=N)NCc3ccccc3)n2)c1	53
N=C(NCc1ccccc1)Nc1nc(-c2cc3cc(F)ccc3[nH]2)cs1	49
N=C(N)Nc1nc(-c2ccccc2)cs1	52
CCCCC/N=C(\N)Nc1nc(-c2cccc(OC)c2)cs1	25
Cc1cc(-c2csc(NC3=NCCN3C)n2)c[nH]1	13
Cc1ccc(-c2csc(N=C(N)N)n2)cc1	61
COc1ccc(-c2csc(N=C(N)N)n2)cc1OC	41
N=C(N)Nc1nc(-c2cc[nH]c2)cs1	68
N=C(NCc1ccccc1)Nc1nc(-c2ccc(F)cc2)cs1	35
Cc1[nH]c(-c2csc(N=C(N)N)n2)cc1C(=O)N(C)C	33
Cc1cc(-c2csc(NC(=N)N3CCCCC3)n2)c[nH]1	34
N=C(N)Nc1ccc(-c2ccccc2)cc1	16
N=C(N)Nc1nc(-c2ccccc2O)cs1	26

SMILES	inhibition [%]
N=C(N)Nc1cc(Cl)nc(-c2ccccc2)n1	89
N/C(=N\Cc1ccccc1)Nc1nc(-c2cccc(O)c2)cs1	8
N=C(N)Nc1nc(-c2ccccc2)co1	0
COc1ccc(-c2csc(NC(=N)NCc3ccccc3)n2)cc1	24
CN(C)c1cccc(-c2csc(NC(=N)N)n2)c1	52
Cc1cc(-c2csc(N)n2)c[nH]1	17
Cc1cc(-c2csc(C)n2)c[nH]1	0
N=C(N)NCCc1c[nH]c2ccccc12	15
N=C(NCc1ccccc1)Nc1nc(-c2ccc(-c3ccccc3)cc2)cs1	5
N=C(N)Nc1nc(-c2c[nH]c(C=O)c2)cs1	44
CN(C)Cc1ccccc1-c1csc(N=C(N)N)n1	27
Cc1ccc(-c2csc(NC(=N)NCc3ccccc3)n2)[nH]1	83
Cc1ccc(-c2csc(NC(=N)NCc3ccccc3)n2)cc1	16
Cc1cc(-c2csc(NC3=NCCN3)n2)c[nH]1	25
N/C(=N\Cc1ccccc1)Nc1nc(-c2ccc(O)cc2)cs1	49

Second part, the compound after the results:

inhibition [%]	SMILES
54	Cc1c(-c2csc(NC(=N)NCc3ccccc3)n2)ccn1S(=O)(=O)c1ccccc1
69	Cc1cc(-c2csc(NC(=N)NCc3ccccc3)n2)cn1S(=O)(=O)c1ccccc1
20	Cc1ccc(-c2csc(N=C(N)N)n2)n1C
25	N=C(N)Nc1nc(-c2ccc(-c3ccccc3)cc2)cs1
45	N=C(N)Nc1nc(-c2cccc(N)c2)cs1
9	Nc1nc(-c2c[nH]c(C=O)c2)cs1
55	N=C(N)Nc1nc(-c2c[nH]c(CN3CCCCC3)c2)cs1
34	Cc1sc(NC(=N)NCc2ccccc2)nc1-c1c[nH]c2ccccc12
35	Cc1sc(NC(=N)NCc2ccccc2)nc1-c1ccn(S(=O)(=O)c2ccccc2)c1C
50	N#Cc1ccc2[nH]cc(-c3csc(NC(=N)NCc4ccccc4)n3)c2c1
44	Cn1cc(-c2csc(N=C(N)N)n2)cc1C=O
19	Cc1cc(-c2csc(NC3=NCCCN3Cc3ccccc3)n2)c[nH]1
5	Cc1nc(-c2c[nH]c(C=O)c2)cs1
80	N#Cc1ccc2[nH]cc(-c3csc(NC(=N)N)n3)c2c1
80	N=C(NCc1ccccc1)Nc1nc(-c2cccc(Cl)c2)cs1
25	COc1ccc(-c2csc(NC(=N)NCc3ccccc3)n2)cc1OC
-1	N=C(NCc1ccccc1)Nc1nc(-c2ccccc2)cs1
48	N=C(N)Nc1nc(-c2ccc(Cl)cc2)cs1
38	N=C(NCc1ccccc1)Nc1nc(-c2ccc(Cl)cc2)cs1
